Among the test systems are Escherichia coli UB1005; Staphylococcus aureus; Escherichia coli; Candida albicans.
What all share (assay): ≥ marks a high value that may be exact or a test limit, other limits are often not marked, values filed in µg/mL are converted to µM
The test system of assay [1] is Staphylococcus aureus ATCC 25923.
For assay [2], the system named is Escherichia coli ATCC 25922.
Assay [3] relates to Acinetobacter baumannii ATCC 19606.
The test system of assay [4] is Pseudomonas aeruginosa ATCC 27853.
Assay [5] concerns Candida albicans ATCC 90028.
Assay [6] concerns Staphylococcus aureus ATCC 29213.
Assay [7] has as its system Pseudomonas aeruginosa PAO1.
Assay [8] has as its system Candida albicans ATCC 10231.
Assay [9] concerns Staphylococcus epidermidis ATCC 12228.
Assay [10] concerns Klebsiella pneumoniae ATCC 700603.

The term MIC denotes the lowest concentration found to suppress growth. Read a high MIC as a less susceptible organism.

The structures appear in SMILES notation. Values after ≈ are worked out from the molar mass of the structure shown.

Consider `CC(C)C[C@H](NC(=O)[C@H](CC(C)C)NC(=O)[C@H](CCCCN)NC(=O)[C@H](CCCCN)NC(=O)[C@H](CC(C)C)NC(=O)[C@@H]1CCCN1C(=O)[C@H](CCCCN)NC(=O)[C@H](CC(C)C)NC(=O)[C@@H](N)Cc1ccccc1)C(N)=O` [FLKPLKKLL], for which the MIC in [1] is > 116 µM; in [2], > 116 µM; in assay [3], > 116 µM; in [4], 7.28 µM (≈ 7.99 µg/mL).
On to `CC[C@H](C)[C@H](NC(=O)[C@H](CCCN=C(N)N)NC(=O)[C@H](CCC(N)=O)NC(=O)[C@@H](NC(=O)[C@H](C)NC(=O)[C@H](CCCN=C(N)N)NC(=O)[C@@H](N)CCCCN)C(C)C)C(=O)N[C@@H](CCCCN)C(=O)N[C@@H](CC(=O)O)C(=O)N[C@@H](Cc1ccccc1)C(=O)N[C@@H](CC(C)C)C(=O)N[C@@H](CCCN=C(N)N)C(=O)O` [KRAVQRIKDFLR], for which the MIC in assay [2] is 5 µM (≈ 7.65 µg/mL); in [5], ≥ 40 µM; in [6], 20 µM (≈ 30.6 µg/mL); in assay [4], 10 µM (≈ 15.3 µg/mL).
Take `CC(C)C[C@H](NC(=O)[C@H](CC(C)C)NC(=O)[C@H](CCCCN)NC(=O)[C@H](CCCCN)NC(=O)[C@H](CC(C)C)NC(=O)[C@H](CCC(=O)O)NC(=O)[C@H](CCCCN)NC(=O)[C@H](CC(C)C)NC(=O)[C@@H](N)Cc1ccccc1)C(N)=O` [FLKELKKLL]: the MIC in assay [1] was > 113 µM; in [2], 113 µM (≈ 128 µg/mL); in [3] it was 113 µM (≈ 128 µg/mL); in assay [4], 14.1 µM (≈ 16 µg/mL).
As to `CC[C@H](C)[C@H](NC(=O)[C@H](CCCN=C(N)N)NC(=O)[C@H](CCCN=C(N)N)NC(=O)[C@@H]1CCCN1C(=O)[C@H](Cc1c[nH]c2ccccc12)NC(=O)[C@H](CCCN=C(N)N)NC(=O)[C@@H]1CCCN1C(=O)[C@H](CCCN=C(N)N)NC(=O)[C@@H]1CCCN1C(=O)[C@H](CC(C)C)NC(=O)[C@H](Cc1ccc(O)cc1)NC(=O)[C@@H]1CCCN1C(=O)[C@@H]1CCCN1C(=O)[C@H](CCCCN)NC(=O)[C@H](CC(=O)O)NC(=O)[C@@H](N)C(C)C)C(=O)N[C@@H](Cc1ccc(O)cc1)C(=O)N[C@@H](CC(N)=O)C(=O)N[C@@H](CCCN=C(N)N)C(N)=O` [VDKPPYLPRPRWPRRIYNR], the MIC in assay [1] was 6.45 µM (≈ 16 µg/mL); in the assay on Escherichia coli UB1005 it was 1.01 µM (≈ 2.5 µg/mL); in assay [7], 12.9 µM (≈ 32 µg/mL).
Turning to `CSCC[C@H](NC(=O)[C@@H](N)CO)C(=O)N[C@@H](CC(C)C)C(=O)N[C@@H](CO)C(=O)N[C@H](C(=O)N[C@@H](CC(C)C)C(=O)N[C@@H](CCCCN)C(=O)N[C@@H](CC(N)=O)C(=O)N[C@@H](CC(C)C)C(=O)NCC(=O)N[C@@H](CCCCN)C(=O)N[C@H](C(=O)NCC(=O)N[C@@H](CC(C)C)C(=O)NCC(=O)N[C@@H](Cc1ccccc1)C(=O)N[C@H](C(=O)N[C@@H](C)C(=O)O)C(C)C)C(C)C)C(C)C` [SMLSVLKNLGKVGLGFVA], the MIC with Staphylococcus aureus, against Escherichia coli and against Candida albicans was > 200 µM each time.
As to `CC(C)C[C@H](NC(=O)[C@H](CC(C)C)NC(=O)[C@H](CCCCN)NC(=O)[C@H](CCCCN)NC(=O)[C@H](CC(C)C)NC(=O)[C@H](CC(N)=O)NC(=O)[C@H](CCCCN)NC(=O)[C@H](CC(C)C)NC(=O)[C@@H](N)Cc1ccccc1)C(N)=O` [FLKNLKKLL], the MIC in [1] was > 115 µM; in assay [2] it was 115 µM (≈ 128 µg/mL); in assay [3], > 115 µM; in assay [4] it was 7.17 µM (≈ 7.99 µg/mL).
In the case of `CC(C)C[C@H](NC(=O)[C@H](CCCCN)NC(=O)[C@H](Cc1ccccc1)NC(=O)[C@H](CC(C)C)NC(=O)[C@H](CC(C)C)NC(=O)[C@@H]1CCCN1C(=O)[C@H](CCCCN)NC(=O)[C@H](CC(C)C)NC(=O)[C@H](CCCCN)NC(=O)[C@@H]1CCCN1C(=O)[C@H](CC(C)C)NC(=O)[C@H](CC(C)C)NC(=O)[C@H](CC(C)C)NC(=O)[C@H](CCCCN)NC(=O)[C@H](CC(C)C)NC(=O)[C@H](CC(C)C)NC(=O)[C@H](CCCCN)NC(=O)[C@@H](N)Cc1ccc(O)cc1)C(N)=O` [YKLLKLLLPKLKPLLFKL], the figures for the MIC in assay [8], in [6] and in assay [4] were 69.1 µM (≈ 151 µg/mL), 1.78 µM (≈ 3.87 µg/mL) and 4.54 µM (≈ 9.9 µg/mL), respectively.
For `CC[C@H](C)[C@H](NC(=O)[C@H](CC(N)=O)NC(=O)[C@H](Cc1cnc[nH]1)NC(=O)[C@H](Cc1ccccc1)NC(=O)[C@H](CC(C)C)NC(=O)[C@H](CCSC)NC(=O)CNC(=O)[C@H](CC(C)C)NC(=O)[C@H](CCSC)NC(=O)[C@H](CCCCN)NC(=O)[C@@H](N)CC(C)C)C(=O)N[C@@H](CCCN=C(N)N)C(=O)N[C@@H](CC(N)=O)C(=O)N[C@H](C(=O)N[C@@H](CC(C)C)C(=O)N[C@@H](CCCCN)C(=O)N[C@H](C(=O)N[C@H](C(N)=O)C(C)C)[C@@H](C)O)[C@@H](C)CC` [LKMLGMLFHNIRNILKTV], the figures for the MIC in assay [9], in assay [1] and in [5] were 64 µM (≈ 137 µg/mL), 128 µM (≈ 274 µg/mL) and ≥ 64 µM, respectively.
On to `CC[C@H](C)[C@H](NC(=O)[C@H](CCCCN)NC(=O)[C@@H](N)CS)C(=O)N[C@@H](CC(N)=O)C(=O)N[C@@H](CCCCN)C(=O)N[C@@H](CCC(N)=O)C(=O)N[C@@H](CS)C(=O)O` [CKINKQC], for which the MIC with Staphylococcus aureus, in the assay on Escherichia coli and with Candida albicans was > 200 µM each time.
As for `CC[C@H](C)[C@H](NC(=O)CN)C(=O)NCC(=O)N[C@@H](CO)C(=O)N[C@H](C(=O)N[C@@H](CC(C)C)C(=O)NCC(=O)N[C@H](C(=O)N[C@H](C(=O)N[C@@H](C)C(=O)N[C@@H](CCCCN)C(=O)NCC(=O)N[C@@H](CC(C)C)C(=O)N1CCC[C@H]1C(=O)N[C@H](C(=O)N[C@@H](CC(C)C)C(=O)N[C@H](C(=O)N[C@@H](CO)C(=O)N[C@@H](Cc1c[nH]c2ccccc12)C(=O)N[C@H](C(=O)N[C@@H](CCCCN)C(=O)N[C@@H](CC(N)=O)C(=O)N[C@@H](CCCN=C(N)N)C(N)=O)[C@@H](C)CC)[C@@H](C)CC)[C@@H](C)O)[C@@H](C)CC)C(C)C)[C@@H](C)CC` [GIGSILGVIAKGLPTLISWIKNR], the MIC in [1] is 5 µM (≈ 12 µg/mL); in assay [2] it was 20 µM (≈ 48.1 µg/mL); in assay [5], 20 µM (≈ 48.1 µg/mL).
In the case of `CC[C@H](C)[C@H](NC(=O)CN)C(=O)N[C@@H](CCCCN)C(=O)N[C@@H](CCCCN)C(=O)N[C@@H](Cc1c[nH]c2ccccc12)C(=O)N[C@@H](CC(C)C)C(=O)N[C@@H](Cc1cnc[nH]1)C(=O)N[C@@H](CO)C(=O)N[C@@H](C)C(=O)N[C@@H](CCCCN)C(=O)N[C@@H](CCCCN)C(=O)N[C@@H](Cc1ccccc1)C(=O)NCC(=O)N[C@@H](CCCCN)C(=O)N[C@@H](CCCCN)C(=O)N[C@@H](Cc1ccccc1)C(=O)N[C@H](C(=O)N[C@@H](CCCCN)C(=O)N[C@@H](CCCCN)C(=O)N[C@H](C(=O)N[C@@H](CCSC)C(=O)N[C@@H](CC(N)=O)C(=O)N[C@@H](CO)C(N)=O)[C@@H](C)CC)C(C)C` [GIKKWLHSAKKFGKKFVKKIMNS], the MIC was 0.16 µM (≈ 0.433 µg/mL) in [9] and 0.63 µM (≈ 1.7 µg/mL) in [2].
For `CC(C)C[C@H](NC(=O)[C@H](CC(C)C)NC(=O)[C@H](CCCCN)NC(=O)[C@H](CCCCN)NC(=O)[C@H](CC(C)C)NC(=O)[C@@H](NC(=O)[C@H](CCCCN)NC(=O)[C@H](CC(C)C)NC(=O)[C@@H](N)Cc1ccccc1)C(C)C)C(N)=O` [FLKVLKKLL], the MIC in [1] is 29.1 µM (≈ 32 µg/mL); in assay [2], 29.1 µM (≈ 32 µg/mL); in assay [3], 29.1 µM (≈ 32 µg/mL); in assay [4], 7.26 µM (≈ 7.99 µg/mL).
On to `CC[C@H](C)[C@H](NC(=O)CN)C(=O)N[C@@H](CCCCN)C(=O)N[C@@H](CCCCN)C(=O)N[C@@H](Cc1c[nH]c2ccccc12)C(=O)N[C@@H](CC(C)C)C(=O)N[C@@H](Cc1cnc[nH]1)C(=O)N[C@@H](CCCCN)C(=O)NCC(=O)N[C@@H](CCCCN)C(=O)N[C@@H](CCCCN)C(=O)N[C@@H](Cc1ccccc1)C(=O)NCC(=O)N[C@@H](CCCCN)C(=O)N[C@@H](CCCCN)C(=O)N[C@@H](Cc1ccccc1)C(=O)N[C@H](C(=O)N[C@@H](CCCCN)C(=O)N[C@@H](CCCCN)C(=O)N[C@H](C(=O)N[C@@H](CCSC)C(=O)N[C@@H](CC(N)=O)C(=O)N[C@@H](CO)C(N)=O)[C@@H](C)CC)C(C)C` [GIKKWLHKGKKFGKKFVKKIMNS], for which the MIC in assay [9] came to 0.08 µM (≈ 0.218 µg/mL); in assay [2] it was 0.63 µM (≈ 1.72 µg/mL).
For the molecule `CC[C@H](C)[C@H](NC(=O)[C@@H](NC(=O)[C@@H]1CCCN1C(=O)[C@@H](NC(=O)[C@@H]1CCCN1C(=O)[C@H](CCCCN)NC(=O)[C@H](CCCCN)NC(=O)[C@H](CO)NC(=O)CN)C(C)C)[C@@H](C)CC)C(=O)N[C@@H](Cc1ccc(O)cc1)C(=O)N[C@H]1CSSC[C@@H](C(=O)N[C@@H](CCC(N)=O)C(=O)N[C@@H](CCCN=C(N)N)C(=O)N[C@@H](CCSC)C(=O)O)NC(=O)[C@H](CCCCN)NC(=O)[C@H](C)NC(=O)[C@H]([C@@H](C)O)NC(=O)[C@H](CCCN=C(N)N)NC(=O)[C@H](CCCN=C(N)N)NC(=O)[C@H](CCC(N)=O)NC1=O` [GSKKPVPIIYCQRRTAKCQRM], the MIC in assay [10] and in [2] was 13 µM (≈ 32 µg/mL) in each case.

(Values after DBAASP.)
